Data from patent US12427192B2, “Water soluble adjuvant and composition containing same” (Sumitomo Pharma Co., Ltd., priority 2019, dated 2025).

Biological target: T1, human TLR7 (Homo sapiens, UniProt Q9NYK1)
T1 construct: expresses full-length human TLR7 and secretory alkaline phosphatase (SEAP) reporter gene; host or cells: HEK293 (TLR7/NF-κB/SEAPorter)
T1 sequence (Q9NYK1 27-1049): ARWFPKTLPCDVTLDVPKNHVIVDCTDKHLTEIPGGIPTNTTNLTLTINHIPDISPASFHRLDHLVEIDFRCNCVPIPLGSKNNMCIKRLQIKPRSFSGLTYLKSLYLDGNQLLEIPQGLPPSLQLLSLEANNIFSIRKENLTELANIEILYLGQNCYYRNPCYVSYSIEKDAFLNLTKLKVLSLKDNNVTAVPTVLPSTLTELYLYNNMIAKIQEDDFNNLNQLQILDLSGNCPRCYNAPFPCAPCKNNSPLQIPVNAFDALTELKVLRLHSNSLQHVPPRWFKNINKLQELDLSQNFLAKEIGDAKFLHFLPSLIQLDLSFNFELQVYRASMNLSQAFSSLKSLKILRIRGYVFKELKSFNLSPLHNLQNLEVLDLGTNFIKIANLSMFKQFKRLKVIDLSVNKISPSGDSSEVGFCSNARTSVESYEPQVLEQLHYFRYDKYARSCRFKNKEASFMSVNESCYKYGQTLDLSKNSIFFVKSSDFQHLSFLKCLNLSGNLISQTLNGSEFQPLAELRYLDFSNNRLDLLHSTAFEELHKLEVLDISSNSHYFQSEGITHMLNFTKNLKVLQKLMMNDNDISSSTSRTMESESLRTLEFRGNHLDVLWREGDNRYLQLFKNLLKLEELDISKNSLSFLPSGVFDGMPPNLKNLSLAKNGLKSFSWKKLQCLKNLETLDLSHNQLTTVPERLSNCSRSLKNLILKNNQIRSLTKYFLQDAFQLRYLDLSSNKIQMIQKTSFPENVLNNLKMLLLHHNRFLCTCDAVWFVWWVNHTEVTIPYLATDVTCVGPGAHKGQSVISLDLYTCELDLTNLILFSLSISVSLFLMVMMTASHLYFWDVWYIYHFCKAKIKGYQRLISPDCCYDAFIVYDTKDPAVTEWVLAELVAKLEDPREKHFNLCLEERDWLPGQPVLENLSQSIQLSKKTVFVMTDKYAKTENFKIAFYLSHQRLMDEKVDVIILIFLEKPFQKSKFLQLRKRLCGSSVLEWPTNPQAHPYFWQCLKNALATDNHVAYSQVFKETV
Assay: Human TLR7 reporter gene assay (TLR7/NF-κB/SEAPorter HEK293 cell line), Tests 1 and 21
Assay type: cell-based
Conditions: Test 1; TLR7/NF-κB/SEAPorter HEK293 cell line; half of maximal SEAP induction; 24-hour incubation, 0.1% DMSO; read-out: EC50
Excerpt: Human TLR7 Reporter Gene Assay
TLR7/NF-κB/SEAPorter™ HEK293 cell line (Imgenex Corporation) is a stably co-transfected cell line which expresses full-length human TLR7 and secretory alkaline phosphatase (SEAP) reporter gene under the transcriptional regulation of an NF-κB response element. The TLR7 expression of the cell line has been already tested by flow cytometry. Transfectants with stable expression were selected using the antibiotic blasticidin and Geneticin. TLR signaling leads to the translocation of NF-κB and the activation of the promoter results in expression of the SEAP gene. TLR7-specific activation was assessed by determining the level of SEAP produced following 24-hour incubation of the cells at 37° C. with each compound prepared in Examples and Reference examples in the presence of 0.1% (v/v) dimethylsulfoxide (DMSO). The human TLR7 activity for the present compound was assessed by human TLR7 reporter gene assay, and the results are shown in Tables 3 and 4 as the compound concentration which produced half of the maximal level of SEAP induction (EC50)
According to the method of Test 1, human TLR7 reporter gene assay was done with the following samples, and the result was shown in the table below.

Row | SMILES | EC50
1 | CCCCCNc1nc(N)nc(C)c1Cc1ccc(CN(C)CCOCCOCCOCCOCCO)cc1OC [Example 1, 1-(4-{[2-amino-4-methyl-6-(pentylamino)pyrimidin-5-yl]methyl}-3-methoxyphenyl)-2-methyl-5,8,11,14-tetraoxa-2-azahexadecan-16-ol·trifluoroacetate] | 0.068 µM
2 | CCCCCNc1nc(N)nc(C)c1Cc1ccc(CNC)cc1OC [Reference example 12, 5-({2-methoxy-4-[(methylamino)methyl]phenyl}methyl)-6-methyl-N^4-pentylpyrimidine-2,4-diamine, reference compound] | 0.05 µM
